Experimental data as given in patent US8507562B2, “Synthesis of (1)-beta-elemene, (-)-beta-elemenal, (-)-beta-elemenol, (-)-beta-elemene fluoride and their analogues, intermediates, and composition and uses thereof” (HYWE Pharmaceuticals, Inc., priority 2004, dated 2013).
In brackets after ≈: the same amount, converted by molar mass. Where two headings read alike, the source gives them in different places. Blank lines part the entries; values can stand above or below the compound they belong to.

Legend:
[1] = test system: A-172 brain tumor; assay: MTT survival assay; type: cell-based, human; conditions: Homo sapiens, A 172, read-out: IC50
Protocol: (§3) The MTT assay is a commonly used method in evaluation of cell survival, based on the ability of viable cells to convert MTT, a soluble tetrazolium salt [3-(4,5-dimethylthuazole-2-yl)-2,5 diphenyl tetrazolium bromide], into an insoluble formazan precipitate, which is quantitated by spectrophotometry following solubilization in dimethyl sulfoxide (DMSO).
(§4) The cells were then solubilized in 125 μl of DMSO and absorbance readings were taken using a 96-well Opsys MRI Microplate Reader (ThermoLabsystems; Chantilly, Va.). The amount of MTT dye reduction was calculated based on the difference between absorbance at 570 nm and at 630 nm. Cell viability in treated cells was expressed as the amount of dye reduction relative to that of untreated control cells. The wells which contained only medium and 10 μl of MTT were used as blanks for the plate reader. Three sets of experiments were performed in 8-12 wells for each treatment.
(§5) The cells were then solubilized in 125 μl of DMSO and absorbance readings were taken using a 96-well Opsys MRI Microplate Reader (ThermoLabsystems; Chantilly, Va.). The amount of MTT dye reduction was calculated based on the difference between absorbance at 570 nm and at 630 nm. Cell viability in treated cells was expressed as the amount of dye reduction relative to that of untreated control cells. The wells which contained only medium and 10 μI of MTT were used as blanks for the plate reader. Three sets of experiments were performed in 8-12 wells for each treatment.

[2] = test system: U-87 brain tumor; assay: MTT survival assay; type: cell-based, human; conditions: Homo sapiens, read-out: IC50
Protocol: as §3, §4, §5

[3] = test system: STTG1 brain tumor; assay: MTT survival assay; type: cell-based, human; conditions: Homo sapiens, read-out: IC50
Protocol: as §3, §4

[4] = test system: H-460 lung cancer; assay: MTT survival assay; type: cell-based, human; conditions: 2 × 10^4 cells/ml
Protocol: as §3, §4
(§6) In brief, carcinoma cells treated with test articles alone, in 96-well tissue culture dishes were incubated with MTT (2 μg/ml) for 4 h. The cells were then solubilized in 125 μl of DMSO and absorbance readings were taken using a 96-well Opsys MRI Microplate Reader (ThermoLabsystems; Chantilly, Va.). The amount of MTT dye reduction was calculated based on the difference between absorbance at 570 nm and at 630 nm. Cell viability in treated cells was expressed as the amount of dye reduction relative to that of untreated control cells. The wells that contained only medium and 10 μl of MTT were used as blanks for the plate reader.
as §5

[5] = test system: A549 lung cancer; assay: MTT survival assay; conditions: 2 × 10^4 cells/ml
Protocol: as §3, §6

[6] = test system: human lung cancer A549; conditions: 30 mg/kg/time ip × 7 qd
[7] = test system: human liver cancer QGY; conditions: 30 mg/kg/time ip × 7 qd
[8] = test system: human breast cancer ao10/17; conditions: 30 mg/kg/time ip × 7 qd
[9] = test system: human prostate cancer PC-3M; conditions: 30 mg/kg/time ip × 7 qd
[10] = test system: human colon cancer HCT-8; conditions: 30 mg/kg/time ip × 7 qd
[11] = test system: human breast cancer Bcap-37; conditions: 30 mg/kg/time ip × 7 qd
[12] = test system: human glioma cells; assay: MTT assay, elemene analogs; type: cell-based; conditions: for IC50: Homo sapiens, Glioma cell
Protocol: as §3, §4

[13] = test system: Colon Cancer Cells HCT-116; assay: MTS cell viability assay; type: cell-based, human; conditions: combinations with Elemene 160 μg/ml, n = 8
[14] = test system: Colon Cancer Cells HCT-15; assay: MTS cell viability assay; conditions: combinations with Elemene 160 μg/ml, n = 8
Protocol: (§7) Cells were maintained at 37° C. in a humidified atmosphere including 5% CO2. […] Drugs were dissolved in 100% DMSO and then diluted in medium for experiments.

[15] = test system: Colon Cancer Cells Colo 205; assay: MTS cell viability assay; conditions: Colo 205, drug alone
Protocol: as §7

[16] = test system: human glioma G422 (xenograph in brain); assay: Tumor xenographed in mice brain, survival; type: in vivo; conditions: 5 mg/kg/time ip × 7 qd
Protocol: (§1) Mice model with tumor xenographed in mice brain: Glioma cell line G-422 or SHG44 (log phase) were diluted to 2×10^7/ml in cell culture hood (no bacteria environment). Each mouse was injected with 0.05 ml of tumor cell in its brain. […] The survival time of these mice was recorded in the next 30 days. The life extension was calculated using the following formula: Life Extension Rate=[( […])/Average survival days of control group[×100 Results: […]

[17] = test system: human glioma SHG44 (xenograph in brain); assay: Tumor xenographed in mice brain, survival; type: in vivo, nude mice; conditions: 5 mg/kg/time ip × 7 qd
Protocol: as §1

[18] = test system: human glioma G-422 (xenograph under skin); assay: Xenograph under skin, injection directly into tumor; type: in vivo, mice; conditions: 5 mg ip × 10 qd
Source text: (§2) The mice were killed after 3 weeks.

[19] = test system: human glioma SHG-44G (xenograph under skin); assay: as above; type: in vivo, nude mice; conditions: listed as printed Pos. Cont. VM-26: 60 mg/kg it × 10 qd
Source text: as §2
Nude mice grew on the cengliu rack.

Compound: C=C[C@]1(C)CC[C@@H]([C@@](C)(O)CO)C[C@H]1C(=C)C (single isomer, unassigned) [Lr-1]
IC50 ([1]; A172, 24 h): 106 µg/mL (≈ 445 µM)
IC50 ([1]; A172, 48 h): 94 µg/mL (≈ 394 µM)
IC50 ([1]; A172, 72 h): 90 µg/mL (≈ 378 µM)
IC50 ([2]; U87, 24 h): 98 µg/mL (≈ 411 µM)
IC50 ([2]; U87, 48 h): 94 µg/mL (≈ 394 µM)
IC50 ([2]; U87, 72 h): 89 µg/mL (≈ 373 µM)
IC50 ([3]; STTG1, 24 h): 108 µg/mL (≈ 453 µM)
IC50 ([3]; STTG1, 48 h): 98 µg/mL (≈ 411 µM)
IC50 ([3]; STTG1, 72 h): 94 µg/mL (≈ 394 µM)

Compound: C=C[C@]1(C)CC[C@@H](C(=C)C=O)C[C@H]1C(=C)C [(−)-beta-elemenal, (−)-Beta-elemenal]
IC50 ([4]; H460, 24 h): 27.6 µg/mL (≈ 126 µM)
IC50 ([4]; H460, 48 h): 25.5 µg/mL (≈ 117 µM)
IC50 ([4]; H460, 72 h): 11.0 µg/mL (≈ 50.4 µM)
IC50 ([5]; A549, 24 h): 45.6 µg/mL (≈ 209 µM)
IC50 ([5]; A549, 48 h): 35.0 µg/mL (≈ 160 µM)
IC50 ([5]; A549, 72 h): 35.0 µg/mL (≈ 160 µM)

Compound: O=P1(N(CCCl)CCCl)NCCCO1 (centres unmarked) [CTX, Cyclophosphamide, reference compound]
Inhibition Rate % [6]: 85.13%
Tumor Weight (g) X ± SD [6]: 0.29 ± 0.07 g
Inhibition Rate % [7]: 89.37%
Tumor Weight (g) X ± SD [7]: 0.22 ± 0.12 g
Inhibition Rate % [8]: 87.50%
Tumor Weight (g) X ± SD [8]: 0.15 ± 0.08 g
Inhibition Rate % [9]: 87.27%
Tumor Weight (g) X ± SD [9]: 0.205 ± 0.1 g
Inhibition Rate % [10]: 88.11%
Tumor Weight (g) X ± SD [10]: 0.170 ± 0.08 g
Inhibition Rate % [11]: 84.23%
Tumor Weight (g) X ± SD [11]: 0.205 ± 0.12 g

Compound: O=C1[O][Pt]2([NH][C@@H]3CCCC[C@H]3[NH]2)[O]C1=O [Oxaliplatin]
IC50 ([13]; HCT-116, 4 hr/24 hr × 2): 106 ± 15.7 µg/mL
IC50 ([13]; HCT-116, 4 hr/24 hr × 3): 65.7 ± 7.02 µg/mL
IC50 ([13]; HCT-116, 4 hr/24 hr): 148 ± 13.7 µg/mL
IC50 ([13]; HCT-116, 4 hr): 373 ± 69.6 µg/mL
IC50 ([13]; HCT-116, 8 hr): 92.2 ± 15.7 µg/mL
IC50 ([13]; HCT-116, 12 hr): 74.4 ± 6.28 µg/mL
IC50 ([13]; HCT-116, 24 hr): 68.9 ± 7.92 µg/mL
IC50 ([13]; HCT-116, 48 hr): 64.5 ± 7.89 µg/mL
IC50 ([13]; HCT-116, 72 hr): 57.2 ± 10.5 µg/mL
IC50 ([14]; HCT-15, 4 hr/24 hr × 2): 16.4 ± 4.64 µg/mL
IC50 ([14]; HCT-15, 4 hr/24 hr × 3): 11.8 ± 3.69 µg/mL
IC50 ([14]; HCT-15, 4 hr/24 hr): 22.0 ± 7.66 µg/mL
IC50 ([14]; HCT-15, 4 hr): 28.4 ± 6.80 µg/mL
IC50 ([14]; HCT-15, 8 hr): 25.7 ± 5.61 µg/mL
IC50 ([14]; HCT-15, 12 hr): 19.3 ± 3.21 µg/mL
IC50 ([14]; HCT-15, 48 hr): 14.5 ± 2.66 µg/mL
IC50 ([14]; HCT-15, 72 hr): 14.9 ± 3.33 µg/mL
IC50 ([15]; Time 4 hr, n = 8): 166 ± 7.51 µg/mL
IC50 ([15]; Time 4 hr/24 hr × 2, n = 8): 21.8 ± 1.06 µg/mL
IC50 ([15]; Time 4 hr/24 hr × 3, n = 8): 9.90 ± 1.01 µg/mL
IC50 ([15]; Time 4 hr/24 hr, n = 8): 29.5 ± 7.05 µg/mL
IC50 ([15]; Time 8 hr, n = 8): 124 ± 13.1 µg/mL
IC50 ([15]; Time 12 hr, n = 8): 69.7 ± 12.7 µg/mL
IC50 ([15]; Time 24 hr, n = 8): 25.2 ± 7.85 µg/mL
IC50 ([15]; Time 48 hr, n = 8): 20.4 ± 2.14 µg/mL
IC50 ([15]; Time 72 hr, n = 8): 13.4 ± 2.42 µg/mL

Compound: COc1cc([C@@H]2c3cc4c(cc3[C@@H](O[C@@H]3O[C@@H]5CO[C@@H](c6cccs6)O[C@H]5[C@H](O)[C@H]3O)[C@H]3COC(=O)[C@H]23)OCO4)cc(OC)c1O [VM26, reference compound]
Average Life Span (day) X± SD [16]: 21.5 ± 3.4 days
Average Life Span (day) X± SD [17]: 30.8 ± 3.7 days
Survival time as % of control (T/C) ([17]; compared to control): 196.75%
Inhibition Rate % [18]: 85.78%
Tumor Weight X ± SD ([18]; in g (unit assumed)): 0.32 ± 0.12
Inhibition Rate % [19]: 61.08%
Tumor Weight X ± SD ([19]; in g (unit assumed)): 0.72 ± 0.12

Compound: (1R,5S)-1-Isobutyl-3,5-diisopropenyl-2-methyl-cyclohex-2-enol, and (1S,5S)-1-Isobutyl-3,5-diisopropenyl-2-methyl-cyclohex-2-enol [Lr-8]
IC50 in human glioma cells ([12]; 24 hr): 106.2 µg/mL
IC50 in human glioma cells ([12]; 48 hr): 105.2 µg/mL
IC50 in human glioma cells ([12]; 72 hr): 103.3 µg/mL

Compound: (S)-1,5-Diisopropenyl-2-methyl-cyclohex-2-enol, and (R)-1,5-Diisopropenyl-2-methyl-cyclohex-2-enol [Lr-4]
IC50 in human glioma cells ([12]; 24 hr): >200 µg/mL
IC50 in human glioma cells ([12]; 48 hr): >200 µg/mL
IC50 in human glioma cells ([12]; 72 hr): >200 µg/mL

Compound: (S)-5-Isopropenyl-1,2-dimethyl-cyclohex-2-enol, and (R)-5-Isopropenyl-1,2-dimethyl-cyclohex-2-enol [Lr-5]
IC50 in human glioma cells ([12]; 24 hr): >200 µg/mL
IC50 in human glioma cells ([12]; 48 hr): >200 µg/mL
IC50 in human glioma cells ([12]; 72 hr): >200 µg/mL

Compound: (−)-Beta-elemene Fluoride
IC50 ([4]; H460, 24 h): 71.3 µg/mL
IC50 ([4]; H460, 48 h): 62.5 µg/mL
IC50 ([4]; H460, 72 h): 68.6 µg/mL
IC50 ([5]; A549, 24 h): 83.0 µg/mL
IC50 ([5]; A549, 48 h): 64.5 µg/mL
IC50 ([5]; A549, 72 h): 71.4 µg/mL

The next lines start with results.

IC50 ([12]; 48 hr): 89.6 µg/mL (≈ 376 µM)
IC50 ([12]; 72 hr): 90.9 µg/mL (≈ 381 µM)
Compound: C=C[C@]1(C)CC[C@@H]([C@](C)(O)CO)C[C@H]1C(=C)C [Lr-2, (S)-2-((1R,3S,4S)-3-isopropenyl-4-methyl-4-vinyl-cyclohexyl)-propane-1,2-diol]
IC50 ([1]; A172, 24 h): 122 µg/mL (≈ 512 µM)
IC50 ([1]; A172, 48 h): 96 µg/mL (≈ 403 µM)
IC50 ([1]; A172, 72 h): 65 µg/mL (≈ 273 µM)
IC50 ([2]; U87, 24 h): 90 µg/mL (≈ 378 µM)
IC50 ([2]; U87, 48 h): 94 µg/mL (≈ 394 µM)
IC50 ([2]; U87, 72 h): 87 µg/mL (≈ 365 µM)
IC50 ([3]; STTG1, 24 h): 112 µg/mL (≈ 470 µM)
IC50 ([3]; STTG1, 48 h): 98 µg/mL (≈ 411 µM)
IC50 ([3]; STTG1, 72 h): 97 µg/mL (≈ 407 µM)

IC50 ([12]; 24 hr): > 200 µg/mL
IC50 ([12]; 48 hr): > 200 µg/mL
IC50 ([12]; 72 hr): > 200 µg/mL
Compound: C=C[C@]1(C)CC[C@@H](C(C)=O)C[C@H]1C(=C)C [Lr-3, 1-((1R,3S,4S)-3-Isopropenyl-4-methyl-4-vinyl-cyclohexyl)-ethanone]
IC50 ([1]; A172, 24 h): > 140 µg/mL
IC50 ([1]; A172, 48 h): 134 µg/mL (≈ 649 µM)
IC50 ([1]; A172, 72 h): 106 µg/mL (≈ 514 µM)
IC50 ([2]; U87, 24 h): 118 µg/mL (≈ 572 µM)
IC50 ([2]; U87, 48 h): > 120 µg/mL
IC50 ([2]; U87, 72 h): 120 µg/mL (≈ 582 µM)
IC50 ([3]; STTG1, 24 h): 108 µg/mL (≈ 523 µM)
IC50 ([3]; STTG1, 48 h): > 120 µg/mL
IC50 ([3]; STTG1, 72 h): 110 µg/mL (≈ 533 µM)

IC50 ([12]; 24 hr): > 200 µg/mL
IC50 ([12]; 48 hr): > 200 µg/mL
IC50 ([12]; 72 hr): > 200 µg/mL
Compound: C=C(C)C1=C(C)C(=O)C[C@@H](C(=C)C)C1 [Lr-6, (S)-3,5-Diisopropenyl-2-methyl-cyclohex-2-enone]

IC50 ([12]; 24 hr): > 200 µg/mL
IC50 ([12]; 48 hr): > 200 µg/mL
IC50 ([12]; 72 hr): > 200 µg/mL
Compound: C=C(C)[C@H]1CC=C(C)C(=O)C1 [Lr-9, (S)-5-Isopropenyl-2-methyl-cyclohex-2-enone]

IC50 ([12]; 24 hr): > 200 µg/mL
IC50 ([12]; 48 hr): > 200 µg/mL
IC50 ([12]; 72 hr): > 200 µg/mL
Compound: C=C(C)[C@@H]1CC=C(C)C(=O)C1 [Lr-10, (R)-5-Isopropenyl-2-methyl-cyclohex-2-enone]

IC50 in human glioma cells ([12]; 24 hr): >200 µg/mL
IC50 in human glioma cells ([12]; 48 hr): >200 µg/mL
IC50 in human glioma cells ([12]; 72 hr): >200 µg/mL
Compound: (1S,5S)-3,5-Diisopropenyl-2-methyl-cyclohex-2-enol, and (1R,5S)-3,5-Diisopropenyl-2-methyl-cyclohex-2-enol [Lr-7]
